Here are results for six compounds from ChEMBL document CHEMBL1129586, “Estrogenic triarylethylene acetic acids: effect of structural variation on estrogen receptor affinity and estrogenic potency and efficacy in MCF-7 cells” (J Med Chem, 1996).

Test [1] concerns MCF7. In words: Inhibition of MCF-7 cell proliferation. To be noted: Homo sapiens. The test is classed as functional.
For test [2], the system named is MCF7. In words: cells. As to conditions: Homo sapiens.
Description: Stimulation of MCF-7 cell proliferation
The test system of test [3] is MCF7. In words: cells. As to conditions: Homo sapiens. The source holds these as a separate data set.
A further test has as its target Estrogen receptor (Rattus norvegicus, UniProt P06211+Q62986).
The subject of test [4] is MCF7. In words: Inhibition of MCF-7 cell proliferation; h=No inhibitory effect. The test is classed as functional, cell-based. As to conditions: Homo sapiens.

By IC30 is commonly meant the concentration needed for an effect of 30%. For orientation: EC50 means the concentration at which the effect is half-maximal. One may read the IC50 as the concentration needed to halve the response being measured. A higher IC50 goes with a need for much substance.

Active and inactive are the calls of the source. The calls are words filed in the database; no cut-off is given here.

With `CC/C(=C(\c1ccccc1)c1ccc(OCC(=O)O)cc1)c1ccccc1`, the concentration for an effect of 30% (IC30) in the test on MCF7 [1] is 20 nM. In the test with MCF7 [2], this compound yielded a half-maximal effective concentration (EC50) of 300 nM. Further, the concentration for half-maximal inhibition (IC50) stood at 320 nM with MCF7 [3] and 4500 nM against Estrogen receptor.
For `CC/C(=C(\c1ccc(O)cc1)c1ccc(CC(=O)O)cc1)c1ccccc1` the same measures were 2.5 nM, 42 nM, 58 nM and 450 nM.
Turning to `CC/C(=C(\c1ccc(C)cc1)c1ccc(OCC(=O)O)cc1)c1ccccc1`, in the test on MCF7 [1], the 30% effect concentration (IC30) stood at 13 nM. For the same compound, the half-maximal effective concentration (EC50) in the test on MCF7 [2] was determined as 350 nM. Moreover, the IC50 in the test on MCF7 [3] came out at 97 nM; against Estrogen receptor it was 1060 nM.
For `CC/C(=C(\c1ccc(O)cc1)c1ccc(OCC(=O)O)cc1)c1ccccc1`, in that order: 30 nM, 5.3 nM, 21 nM and 9 nM.
As to `CCC(=C(c1ccc(O)cc1)c1ccc(O)cc1)c1ccc(OCC(=O)O)cc1`, a half-maximal response in the test on MCF7 [2] (EC50) required 46 nM. Moreover, the IC50 in the test with MCF7 [3] worked out at 2390 nM; against Estrogen receptor, 750 nM. Also, the IC30 entry in the test with MCF7 [4] is “inactive”.
For `O=C(O)COc1ccc(C(Cc2ccccc2)c2ccc(O)cc2)cc1` (centres undefined) the same measures were 16 nM, 600 nM, 900 nM and “inactive”.
